Earlier results, collected in paper PMC4959786 (Clinical immunology (Orlando, Fla.), 2015).

Molecular target: I-A^q (Mus musculus, UniProt P04227+P06342)
Details: result in words, earlier work

Sequence of I-A^q (P04227 whole entry, looked up): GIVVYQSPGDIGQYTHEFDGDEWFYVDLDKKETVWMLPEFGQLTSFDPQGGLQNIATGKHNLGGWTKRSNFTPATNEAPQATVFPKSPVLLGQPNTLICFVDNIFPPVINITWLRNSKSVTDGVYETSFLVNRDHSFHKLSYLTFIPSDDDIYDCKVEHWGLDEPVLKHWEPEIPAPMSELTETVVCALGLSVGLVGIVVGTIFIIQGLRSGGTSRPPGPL
Sequence of I-A^q (P06342 whole entry, looked up): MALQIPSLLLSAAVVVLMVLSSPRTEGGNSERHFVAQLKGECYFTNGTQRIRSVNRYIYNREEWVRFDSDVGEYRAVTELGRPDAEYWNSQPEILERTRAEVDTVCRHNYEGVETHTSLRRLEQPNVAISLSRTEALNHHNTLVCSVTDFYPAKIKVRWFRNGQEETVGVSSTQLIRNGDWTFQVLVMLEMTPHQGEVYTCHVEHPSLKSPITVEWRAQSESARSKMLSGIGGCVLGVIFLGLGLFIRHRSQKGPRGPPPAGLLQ

binding to I-A^q (ref [5], [6]): binds very weakly
binding affinity for I-A^q (ref [6]): very weak binding affinity
Sequence: GEBGABGNKGEQGPKGEBGP [A9]
